Assay results as given in patent US20070105808A1, “Inhibition of histone deacetylase” (MethylGene, Inc., priority 1999, published 2007).
Where a SMILES comes first, the peptide text is derived from it. [ ]: non-standard residue; d: D form. Aoe = N[C@@H](CCCCCC(=O)[C@@H]1CO1)C(=O)O; d = 2'-deoxy (DNA); m = 2'-O-methyl

Legend:
HDAC-1 protein = assay: Western blotting analysis of HDAC-1 protein expression in transfected T24 cells; assay type: cell-based, human; settings: FIG. 4; second generation oligonucleotides, T24 cells transfected twice with 50 nM, lysates 24 h after second transfection
Protocol: (§1) To do this, T24 cells were transfected with oligonucleotide using lipofectin as described above. Twenty-four hours later, the cells were lysed according to standard procedures. The whole cell extracts (50 μg) were resolved on 7-15% gradient SDS/PAGE, transferred to PVDF membrane (Amersham, Arlington Heights, Ill.), and subjected to Western blotting analysis with rabbit polyclonal HDAC1- and HDAC-2 specific antibodies (1:500, Santa Cruz Biotech., Santa Cruz, Calif.) were used. Detection was accomplished with a secondary anti-rabbit IgG-HR peroxidase antibody and an enhanced chemiluminescence detection kit (Amersham) accordingly to manufacturer's instructions.
T24 cells were transfected twice as described above with 50 nM oligonucleotide. Cell lysates were prepared twenty-four hours following the second transfection, resolved on 7-15% gradient SDS-PAGE, and transferred to PVDF membrane. The PVDF membrane blot was first blotted with anti-HDAC-1 antibody. Following detection with horseradish peroxidase-labelled secondary antibody and enhanced chemiluminescence, the blot was stripped, and re-probed with anti-HDAC-2 antibody. Following detection, the blot was stripped for a second time and re-probed with an actin-specific antibody to verify equal protein loading in the lanes.

[1] = tested on: cell cycle progression in cells; settings: literature reports; cited from earlier work
histone deacetylase = settings: Yoshida et al.; cited from earlier work
HDAC-2 protein = assay: Western blotting analysis of HDAC-2 protein expression in transfected T24 cells; assay type: cell-based, human; settings: FIG. 3; 50 nM second generation oligonucleotide, T24 cells transfected twice, 48 hours after the first transfection
Protocol: as §1
Twenty-four hours later, the cells were transfected a second time with the same amount of the same oligonucleotide. Twenty-four hours after this (i.e., 48 hours after the first transfection), cellular proteins were prepared, resolved on 7-15% gradient SDS-PAGE, and subjected to Western blotting analysis as described in Example 1 with rabbit polyclonal HDAC2 specific antibody (1:500, Santa Cruz Biotech). Following blotting with the secondary anti-rabbit IgG-HR peroxidase antibody and visualization with the enhanced chemiluminescence detection kit (Amersham), the blot was stripped and re-probed with an antibody specific to actin to verify equal loading of all wells (data not shown). […]

Compound	cell cycle progression [1]	further results
5′-CAAUCGTCAGAGACTCCGAA-3′ (antisense CAAUCGTCAGAGACTCCGAA; sugars from the 5' end m4 d12 m4, backbone and methylation of C not given here) [MG2609, mismatch control oligonucleotide of HDAC-1 (MG2608)]	–	inhibition of HDAC-1 protein expression (HDAC-1 protein): failed to inhibit
O=C(CCCCCCC(=O)Nc1ccccc1)NO [suberoylanilide hydroxamic acid]	inhibit cell cycle progression in cells	–
depudecin	inhibit cell cycle progression in cells	–
O=C1N[C@@H](Cc2ccccc2)C(=O)N2CCC[C@@H]2C(=O)N[C@@H](CCCCCC(=O)[C@@H]2CO2)C(=O)N[C@H]1Cc1ccccc1 [trapoxin] (cyclo(FF[dP][Aoe]))	inhibit cell cycle progression in cells	–
C/C=C1\NC(=O)[C@H]2CSSCC/C=C/[C@H](CC(=O)N[C@H](C(C)C)C(=O)N2)OC(=O)[C@H](C(C)C)NC1=O [FR901228]	inhibit cell cycle progression in cells	–
CC(/C=C/C(=O)NO[C@@H]1O[C@H](CO)[C@@H](O)[C@H](O)[C@H]1O)=C\[C@@H](C)C(=O)c1ccc(N(C)C)cc1 [trichostatin C]	inhibit cell cycle progression in cells	–
CC(/C=C/C(=O)NO)=C\[C@@H](C)C(=O)c1ccc(N(C)C)cc1 [Trichostatin A]	arrest cell cycle progression in cells in the G1 and G2 phases	inhibition of histone deacetylase activity (histone deacetylase): inhibit histone deacetylase activity
5′-CUCCTTGACTGTACGCCAUG-3′ [MG2636]	–	inhibition of HDAC-2 protein expression (HDAC-2 protein): able to inhibit HDAC-2 protein expression
